Reference: patent US8178509B2, “Method to treat sickle cell disease” (University of Virginia Patent Foundation, priority 2006, dated 2012)

Key:
[1] = tested on: C57BL/6 MAECs; assay: Static WEHI monocyte adhesion assay on murine aortic endothelial cells; assay type: cell-based, C57BL/6 mice; conditions: murine TNFα 10 U/ml, positive control
Experimental: Adhesion of both sickle RBCs and leukocytes in SCD is believed dependent on endothelial activation. […] Murine aortic endothelial cells (MAECs) were prepared from C57BL/6 and NY-S (NY1DD) mice. In a static adhesion assay using WEHI monocytes activation of the endothelium as manifested by increasing monocyte adhesion can be quantified. MAECs prepared from C57BL/6 mice form a monolayer which is not highly activated as assessed by the small number of adherent monocytes. As a positive control for endothelial activation C57BL/6 MAECs were stimulated with murine TNFα (10 U/ml). […] Clearly, the endothelium of NY-S (NY1DD) sickle mice is in a state of activation at baseline.
Aortic endothelial cells from C57BL/6J and NY-S (NY1DD) mice were harvested from the aorta under sterile conditions. A monocyte adhesion assay that utilizes primary MAECs and WEHI78/24 cells were performed according to Hatley et al. WEHI cells are labeled with calcein-AM using standard methods described by the manufacturer (Molecular Probes). For the adhesion assay, MAECs were cultured to confluency in a 48-well plate and incubated with 35,000 calcein-labeled WEHI cells/well for 30 min at 37° C. Non-adherent cells were rinsed, and adherent cells were fixed with 1% glutaraldehyde. The number of adherent monocytes within a 10×10 eyepiece grid at 40× magnification was counted using an epifluorescence microscopy. […]

[2] = tested on: leukocyte interactions with the endothelium; assay: Intravital microscopy of exteriorized cremaster muscle, leukocyte adhesion; assay type: in vivo, NY-S (NY1DD) mice; conditions: no hypoxia
Source text: An exteriorized cremaster muscle preparation was used to study the microcirculation in vivo as a means of assaying the effect of the test compounds, e.g., ATL146e, on leukocyte interactions with the endothelium. […] In this experiment, mice were not stressed with hypoxia, but the manipulation of the cremaster tissue for microscopic examination itself produces some rolling and adherence of leukocytes, probably due to release of chemokines from damaged tissue. Adherent leukocytes were defined as those which moved less than one circumference in an observational period (30 seconds/vessel). […]
Microscopic observations were made on a Zeiss intravital microscope (Axioskop, Carl Zeiss, Inc., Thomwood, N.Y.) with a saline immersion objective (SW 40/0.75) visualized under bright field illumination. […] Randomly selected venules with diameters between 19 and 54 μm were recorded for 1.5 minutes.
A MicroMotion DC30 video compression card (Pinnacle Systems, Mountain View, Calif.) was used to digitize video recordings from a JVC HR-53600U VHS recorder into a Macintosh computer (Adobe Premiere software). Digitized video clips were analyzed with the public domain NIH image program with custom-written macros. […] Individual comparisons between groups were calculated using a one-tailed t test with p<0.05.

[3] = tested on: platelets; assay: Platelet aggregation (singlet loss) in platelet-rich plasma after in vivo pretreatment, ADP activation; design: species or system NY-S (NY1DD) mice; conditions: pretreated in vivo, Alzet mini-pump, 10 ng/kg/min, O/N; all doses of ADP added in vitro
Experimental: Adenosine 5′-diphosphate (ADP) is a critical mediator of platelet activation. Two members of the P2Y-receptor family (P2Y1, P2Y12) are responsible for the initiation and amplification of the aggregation response.
Mice were first anesthetized with the use of a vaporizer (Vapomatic, A.M. Bickford, INC., Wales Center, N.Y.) delivering 1.5% isoflurane (Abbott Laboratories, Chicago, Ill.). The animals were ventilated with 100% oxygen (tidal volume 0.3 mL; rate 125 breaths/min; respiratory/expiratory ratio 1; positive end-expiratory pressure (PEEP) was between 5 and 10 cm H2O) at a low rate of 0.8 L/min via an animal ventilator (Columbus Instruments, Columbus, Ohio).
Platelet isolation. […]
Platelet aggregation assay—single particle counting. […] The reaction was quenched with glutaraldehyde (1%), and platelet aggregation then evaluated by the loss of platelet singlets, using a resistive-particle counter. The loss of platelet singlets was expressed as a percent value of the control platelet count (platelet count in PRP incubated for 10 minutes in 37° C. in the absence of shear forces).

[4] = tested on: NY-S (NY1DD) mice; assay: Pulmonary histology (H&E), hypoxia-induced vascular congestion; assay type: in vivo; conditions: 3 hour hypoxia (10% O2); Alzet mini-pump, 10 ng/kg/min, overnight, started prior to hypoxic stress
Experimental: Under normoxic conditions, while the lungs of the wild type mice are clear, there is a high incidence of focal vascular congestion in the NY-S (NY1DD) mice (FIGS. 6A & 6B, see arrows). The disseminated pink color throughout the section may be due to elevated numbers of possibly adherent capillary red cells. The extent of vascular congestion is exacerbated in the NY-S (NY1DD) mice following 3 hour of hypoxia (10% O2; FIG. 6c). The increased susceptibility of the NY-S (NY1DD) mice to hypoxia-induced lung injury is evidenced both as an increase in the total area of involvement and the size of the vessels congested (see arrow, FIG. 6C).

[5] = tested on: NY-S (NY1DD) mice; assay: Gamma camera imaging of hypoxia-sensitive tracer BRU59-21 in lungs; assay type: in vivo; conditions: 3 hours hypoxia (10% O2)/1 hour reoxygenation; Alzet mini-pump, 10 ng/kg/min, O/N; untreated vs treated
Experimental: Animals were subject to 3 hours hypoxia (10% O2)/1 hour reoxygenation. After 30 minutes of reoxygenation the mice were given a bolus intra-jugular injection of BRU59-21 (˜300 μCi). At the end of the reoxygenation period planar gamma camera images were taken with a ten minute acquisition window. The images in FIG. 7 show tracer accumulation in the tissues of hypoxic C57BL/6 and NY-S (NY1DD) mice. […] There is a large non-specific signal present in the abdomen due to hepatic metabolism and clearance of the tracer via the intestinal tract. Anterior to the abdominal signal is a bilateral signal which is absent from the C57/B6 mice and localized to the lungs in the NY-S (NY1DD) mouse.
C57BL/6 and NY-S (NY1DD) mice were subject to 3 hour hypoxia/1 hour reperfusion (10% O2). Thirty minutes after the start of the reperfusion period the mice were anesthetized (ketamine 125 mg/kg; xylazine 12.5 mg/kg, IP) and given a bolus intra jugular injection of BRU59-21 (˜300 μCi). At the end of the reperfusion period planar gamma camera images were collected. Anesthetized mice were imaged side-by-side in planar mode directly on the inverted face of a low energy, high resolution (LEHR) collimator mounted on a Siemens Orbiter gamma camera (Siemens Medical Solutions USA, Inc., Malvern Pa.). […]

[6] = tested on: NY-S (NY1DD) mice; assay: Unrestrained whole-body plethysmography during hypoxic stress; assay type: in vivo; conditions: 3 hour hypoxic stress (8% O2), Alzet pump, 10 ng/kg/min, overnight
Experimental: Clinicians have disclosed that breathing disorders can occur in SCD patients during vaso-occlusive crisis (VOC). […] Pain-associated shallow breathing during sickle crisis may contribute to the pathogenesis of acute chest syndrome. To characterize the extent of hypoxia-induced lung injury in NY-S (NY1DD) mice, pulmonary function was assessed using unrestrained whole-body plethysmography during and after exposure to hypoxic air. Naïve NY-S (NY1DD) mice were compared to NY-S (NY1DD) mice which had been treated with ATL146e (Alzet pump, 10 ng/kg/min, overnight). […] Plexiglas chambers (4 in diameter) are connected to a direct airflow sensor (Buxco Max II, Buxco Electronics). Constant airflow through the chambers is maintained at 70 ml/min. The flow signals are amplified by a channel amplifier (EMKA Technologies), converted to a digital signal, and recorded using IOX software (EMKA Technologies). The respiratory parameters minute ventilation (MV, ml/min), respiratory frequency (f, breaths/min), expiratory time (TE, msec), and relaxation time (RT, msec) are calculated and plotted as change over time. The chambers are calibrated by injecting 1 ml of air. The mice are placed unrestrained into the chambers and after a 30 min adjustment period, respiratory activity is recorded while the animal breathes either ambient air or hypoxic gas (8% O2).

Compound | number of monocytes captured (endothelial activation) [1] | leukocyte adhesion (adherent leukocytes/field) ([2]; bolus injection, intraperitoneal, 5 μg/kg, 30 minutes prior to cremaster exteriorization) | leukocyte adhesion (adherent leukocytes/field) ([2]; infusion, Alzet mini-pump, 10 ng/kg/min, overnight) | platelet activation in platelet rich plasma [3] | severity of hypoxia-induced vascular congestion in lung [4] | lung-specific BRU59-21 signal intensity in thoracic cavity (qualitative) [5] | minute volume [6] | breathing frequency ([6]; n=2 each group)
TNFα | three-fold increase | – | – | – | – | – | – | –
CCNC(=O)C1OC(n2cnc3c(N)nc(C#CCC4CCC(C(=O)OC)CC4)nc32)C(O)C1O (centres unmarked) [ATL146e, 4-{3-[6-Amino-9-(5-ethylcarbamoyl-3,4-dihydroxy-tetrahydro-furan-2-yl)-9H-purin-2-yl]-prop-2-ynyl}cyclohexanecarboxylic acid methyl ester] | – | pronounced reduction in leukocyte adhesion | pronounced reduction in leukocyte adhesion | reduced to below control levels | significantly reduced | significantly more lung-specific signal in the untreated mice | respiratory stress of hypoxia was alleviated | significantly reduced
